This is an account of results in patent publication US8859549B2, “Potassium channel modulators” (AbbVie, Inc., priority 2011, dated 2014).

Assay [1] has as its system Sprague-Dawley rats. The experiment in a line: Spinal Nerve Ligation (SNL) model of neuropathic pain, tactile allodynia. The class given is in vivo, rat. The note with it: about 30 mg/kg i.p., 30 minutes or more before testing. The source says: Adult male Sprague-Dawley rats (250-300 g body weight, Charles River Laboratories, Portage, Mich.) were used. Animal handling and experimental protocols were approved by the Institutional Animal Care and Use Committee (IACUC) at Abbott Laboratories. For all surgical procedures, animals were maintained under isoflurane anesthesia (4-5% to induce, 1-3% to maintain), and the incision sites were sterilized using a 10% povidone-iodine solution prior to and after surgeries.
Tactile (mechanical) allodynia was measured using calibrated von Frey filaments (Stoelting, Wood Dale, Ill.) as described in Chaplan, S. R., F. W. Bach, J. M. Pogrel, J. M. Chung and T. L. Yaksh, 1994, Quantitative assessment of tactile allodynia in the rat paw, J. Neurosci. Methods, 53, 55. Rats were placed into inverted individual plastic containers (20×12.5×20 cm) on top of a suspended wire mesh grid, and acclimated to the test chambers for 20 minutes. The von Frey filaments were presented perpendicularly to the plantar surface of the selected hind paw, and then held in this position for approximately 8 sec with enough force to cause a slight bend in the filament. Positive responses included an abrupt withdrawal of the hind paw from the stimulus, or flinching behavior immediately following removal of the stimulus. A 50% withdrawal threshold was determined using an up-down procedure (Dixon, W. J., 1980, Efficient analysis of experimental observations, Ann. Rev. Pharmacol. Toxicol., 20, 441). […] Tactile allodynia thresholds were also assessed in several control groups, including naive, sham-operated, and saline infused animals as well as in the contralateral paws of nerve-injured rats. To evaluate the anti-nociceptive effects, animals were administered vehicle or test compound and tactile allodynia was assessed 30 minutes after i.p. administration.
A model of spinal nerve ligation-induced (SNL model) neuropathic pain as originally described by Kim and Chung (Kim, S. H. and J. M. Chung, 1992, Pain 50, 355) was used to test a compound of the present application The left L5 and L6 spinal nerves of the rat were isolated adjacent to the vertebral column and tightly ligated with a 5-0 silk suture distal to the DRG, and care taken to avoid injury of the L4 spinal nerve. The same procedure was performed on Sham rats, but without nerve ligation. All animals were allowed to recover for at least one week and not more than three weeks prior to assessment of tactile allodynia.
Compounds were injected (i.p) 30 minutes or more before testing.

Assay [2] concerns the target T1, KCNQ 2/3 channels (Homo sapiens, UniProt O43525+O43526).
T1 construct: expressed in transfected cells; host or cells: HEK293
The experiment in a line: KCNQ 2/3 channel activation, thallium flux FLIPR assay (BTC-AM dye). The class given is cell-based. The note with it: for Emax: HEK293, maximum response relative to the response of 10 μM retigabine (set at 100%), HEK293 KCNQ2/KCNQ3 cells, read-out: % MAX; for EC50: HEK293 cells stably expressing human KCNQ2 and KCNQ3 subunits, thallium-induced fluorescence, 4 min compound incubation. In short, it runs like this:
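HEK293 cells stably expressing human KCNQ2/KCNQ3 were loaded with BTC-AM (3 μg/mL, 2 h, RT) and preincubated with compound for 4 min in pH 7.3 gluconate buffer containing 0.1 mM ouabain. Flux was triggered by 6 mM TlNO3/10 mM K2SO4 and read for 3 min; EC50 came from summed responses over basal, with maximum relative to 10 μM retigabine (100%).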

Turning to `C[C@@H]1CN(c2nn(NC(=O)Cc3ccc(Cl)cc3)c(=O)c3ccccc23)C[C@H](C)O1` [Example 81, 2-(4-chlorophenyl)-N-{4-[cis-2,6-dimethylmorpholin-4-yl]-1-oxophthalazin-2(1H)-yl}acetamide], in assay [1], the “change in paw withdrawal latency versus vehicle” value (from here on “change”) is “statistically significant change”. Moreover, in assay [2], the Emax came out at 85.1% and the EC50 – broadly, the concentration at which the effect is half-maximal – is 663 nM.

Take `O=C(Cc1cc(F)cc(F)c1)Nn1nc(S(=O)(=O)c2ccccc2)c2ccccc2c1=O` [Example 68, 2-(3,5-difluorophenyl)-N-[1-oxo-4-(phenylsulfonyl)phthalazin-2(1H)-yl]acetamide]: the “change” value in assay [1] is listed as “statistically significant change”. In assay [2], the Emax was found to be 79.9% and it took 69.9 nM to reach a half-maximal effect (EC50).

For `CC(C)(C)OC(=O)NCc1nn(NC(=O)Cc2ccc(Cl)cc2)c(=O)c2ccccc12` [Example 41, tert-butyl[(3-{[(4-chlorophenyl)acetyl]amino}-4-oxo-3,4-dihydrophthalazin-1-yl)methyl]carbamate], in assay [1], the “change” value is listed as “statistically significant change”. In assay [2], the Emax was found to be 90.3% and the response was half-maximal at 975 nM (EC50).

Turning to `O=C(Cc1ccc(Cl)cc1)Nn1nc(S(=O)(=O)c2ccccc2)c2ccccc2c1=O` [Example 69, 2-(4-chlorophenyl)-N-[1-oxo-4-(phenylsulfonyl)phthalazin-2(1H)-yl]acetamide], in assay [1], the “change” value is reported as “statistically significant change”. Besides, in assay [2], the Emax was determined as 118% and the EC50 was found to be 40.9 nM.

Turning to `O=C(CC1CC2CCC1C2)Nn1nc(-c2ccc(C(F)(F)F)nc2)c2ccccc2c1=O` (racemic) [Example 43, (±)-2-[(exo)-bicyclo[2.2.1]hept-2-yl]-N-{1-oxo-4-[6-(trifluoromethyl)pyridin-3-yl]phthalazin-2(1H)-yl}acetamide], in assay [1], the “change” value was “statistically significant change”. Moreover, in assay [2], the Emax was determined as 149% and the EC50 is 143 nM.

As to `CCOC(=O)c1nn(NC(=O)Cc2ccc(Cl)cc2)c(=O)c2ccccc12` [Example 63, ethyl 3-{[(4-chlorophenyl)acetyl]amino}-4-oxo-3,4-dihydrophthalazine-1-carboxylate], in assay [2], the Emax came to 64.8% and the EC50 was found to be 862 nM.

In the case of `O=C(Cc1ccc(Cl)cc1)Nn1nc(CNS(=O)(=O)C(F)(F)F)c2ccccc2c1=O` [Example 79, 2-(4-chlorophenyl)-N-[1-oxo-4-({[(trifluoromethyl)sulfonyl]amino}methyl)phthalazin-2(1H)-yl]acetamide], in assay [2], the Emax turned out to be 33.6% and a half-maximal effect (EC50) was put at 9080 nM.

Regarding `O=C(CC1CC2CCC1C2)Nn1nc(CNC(=O)OCc2ccccc2)c2ccccc2c1=O` (racemic) [Example 96, (±)-benzyl[(3-{[(exo)-bicyclo[2.2.1]hept-2-ylacetyl]amino}-4-oxo-3,4-dihydrophthalazin-1-yl)methyl]carbamate], in assay [2], the Emax amounted to 79.4% and the response was half-maximal at 315 nM (EC50).

Take `NCc1nn(NC(=O)Cc2ccc(Cl)cc2)c(=O)c2ccccc12` [Example 42, N-[4-(aminomethyl)-1-oxophthalazin-2(1H)-yl]-2-(4-chlorophenyl)acetamide]: the Emax in assay [2] worked out at 8.66%.

For `O=C(CC1CC2CCC1C2)Nn1nc(-c2ccnc(C(F)(F)F)c2)c2ccccc2c1=O` (racemic) [Example 76, (±)-2-[(exo)-bicyclo[2.2.1]hept-2-yl]-N-{1-oxo-4-[2-(trifluoromethyl)pyridin-4-yl]phthalazin-2(1H)-yl}acetamide], in assay [1], the “change” value is reported as “statistically significant change”. In assay [2], the Emax turned out to be 127% and it took 126 nM to reach a half-maximal effect (EC50).

`O=C(Cc1cc(F)cc(F)c1)Nn1nc(N2CCCC2)c2ccccc2c1=O` [Example 20, 2-(3,5-difluorophenyl)-N-[1-oxo-4-(pyrrolidin-1-yl)phthalazin-2(1H)-yl]acetamide]: in assay [2], the Emax is 145% and the EC50 worked out at 214 nM.

On to `CCOC(=O)Cc1nn(NC(=O)Cc2ccc(Cl)cc2)c(=O)c2ccccc12` [Example 116, ethyl(3-{[(4-chlorophenyl)acetyl]amino}-4-oxo-3,4-dihydrophthalazin-1-yl)acetate], for which, in assay [2], the Emax was 61.4% and the EC50 amounted to 7620 nM.

For the compound `CC(C)(C)OC(=O)NCc1nn(NC(=O)CC2CCCCC2)c(=O)c2ccccc12` [Example 126, tert-butyl({3-[(cyclohexylacetyl)amino]-4-oxo-3,4-dihydrophthalazin-1-yl}methyl)carbamate], the Emax in assay [2] came to 25.6%.

`O=C(Cc1ccc(Cl)cc1)Nn1nc(N2CCCC2)c2ccccc2c1=O` [Example 21, 2-(4-chlorophenyl)-N-[1-oxo-4-(pyrrolidin-1-yl)phthalazin-2(1H)-yl]acetamide]: in assay [2], the Emax turned out to be 136% and the EC50 worked out at 198 nM.

As for `O=C(Cc1ccccc1[N+](=O)[O-])Nn1nc(N2CCOCC2)c2ccccc2c1=O` [Example 142, N-[4-(morpholin-4-yl)-1-oxophthalazin-2(1H)-yl]-2-(2-nitrophenyl)acetamide], the Emax in assay [2] is 1.59%.

For `O=C(Cc1cccc(C(F)(F)F)c1)Nn1nc(N2CCOCC2)c2ccccc2c1=O` [Example 160, N-[4-(morpholin-4-yl)-1-oxophthalazin-2(1H)-yl]-2-[3-(trifluoromethyl)phenyl]acetamide], in assay [2], the Emax came out at 62.1% and the EC50 worked out at 9680 nM.
